Test in all cases: Thermal stability shift assay
What all share (type): binding

One experiment addresses T1, NEK7 (Homo sapiens, UniProt Q8TDX7).
T1 construct: purchased in-house (SGC Oxford thermal shift panel)
The following applies: read-out: Tm shift NEK7. The method, boiled down:
(§1)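 Each value reflects thermal unfolding of 2 μM protein with 10 μM inhibitor, detected by SyproOrange (1:1000 dilution) fluorescence in 10 mM HEPES pH 7.5, 500 mM NaCl.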

Another experiment has as its target T2, MST4 (Homo sapiens, UniProt Q9P289).
T2 construct: purchased in-house (SGC Oxford thermal shift panel)
The following applies: read-out: Tm shift MST4. The method, boiled down:
as §1

Another experiment has as its target T3, CaMK4 (Homo sapiens, UniProt Q16566).
T3 sequence (Q16566 1-473): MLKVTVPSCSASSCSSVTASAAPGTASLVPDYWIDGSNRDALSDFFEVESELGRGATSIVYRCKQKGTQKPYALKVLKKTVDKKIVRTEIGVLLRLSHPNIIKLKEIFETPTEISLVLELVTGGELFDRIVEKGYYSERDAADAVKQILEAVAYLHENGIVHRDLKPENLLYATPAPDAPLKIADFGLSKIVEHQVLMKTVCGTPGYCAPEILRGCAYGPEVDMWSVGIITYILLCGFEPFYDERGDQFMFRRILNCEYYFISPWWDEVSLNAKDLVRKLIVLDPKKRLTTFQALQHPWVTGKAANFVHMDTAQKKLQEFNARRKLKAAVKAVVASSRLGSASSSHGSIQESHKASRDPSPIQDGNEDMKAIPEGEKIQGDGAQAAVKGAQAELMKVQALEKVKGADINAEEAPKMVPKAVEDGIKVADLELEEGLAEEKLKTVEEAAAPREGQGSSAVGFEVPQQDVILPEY
The following applies: read-out: Tm shift CaMK4. Put shortly:
as §1

A further experiment concerns the target T4, NDR2 (Homo sapiens, UniProt Q9Y2H1).
T4 construct: purchased in-house (SGC Oxford thermal shift panel)
The following applies: read-out: Tm shift NDR2. The method, boiled down: as §1

A further experiment has as its target CaMK1d (Homo sapiens, UniProt Q8IU85). The following applies: read-out: Tm shift CaMK1d. The method, boiled down: as §1
The next experiment concerns the target T5, SgK085 (Homo sapiens, UniProt Q86YV6).
T5 sequence (Q86YV6 1-388): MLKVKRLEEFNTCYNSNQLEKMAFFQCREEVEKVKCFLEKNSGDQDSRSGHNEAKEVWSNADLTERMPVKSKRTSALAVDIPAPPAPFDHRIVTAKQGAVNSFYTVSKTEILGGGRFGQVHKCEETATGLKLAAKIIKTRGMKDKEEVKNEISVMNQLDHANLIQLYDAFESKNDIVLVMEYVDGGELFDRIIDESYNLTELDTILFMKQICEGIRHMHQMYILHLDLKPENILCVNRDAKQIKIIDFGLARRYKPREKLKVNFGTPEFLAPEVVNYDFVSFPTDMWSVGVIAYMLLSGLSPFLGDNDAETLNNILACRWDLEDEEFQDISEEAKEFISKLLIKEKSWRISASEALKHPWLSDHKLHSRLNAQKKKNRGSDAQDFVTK
The following applies: read-out: Tm shift SgK085. The method, boiled down: as §1

The target in a further experiment is T6, TTK (Homo sapiens, UniProt P33981).
T6 sequence (P33981 1-857): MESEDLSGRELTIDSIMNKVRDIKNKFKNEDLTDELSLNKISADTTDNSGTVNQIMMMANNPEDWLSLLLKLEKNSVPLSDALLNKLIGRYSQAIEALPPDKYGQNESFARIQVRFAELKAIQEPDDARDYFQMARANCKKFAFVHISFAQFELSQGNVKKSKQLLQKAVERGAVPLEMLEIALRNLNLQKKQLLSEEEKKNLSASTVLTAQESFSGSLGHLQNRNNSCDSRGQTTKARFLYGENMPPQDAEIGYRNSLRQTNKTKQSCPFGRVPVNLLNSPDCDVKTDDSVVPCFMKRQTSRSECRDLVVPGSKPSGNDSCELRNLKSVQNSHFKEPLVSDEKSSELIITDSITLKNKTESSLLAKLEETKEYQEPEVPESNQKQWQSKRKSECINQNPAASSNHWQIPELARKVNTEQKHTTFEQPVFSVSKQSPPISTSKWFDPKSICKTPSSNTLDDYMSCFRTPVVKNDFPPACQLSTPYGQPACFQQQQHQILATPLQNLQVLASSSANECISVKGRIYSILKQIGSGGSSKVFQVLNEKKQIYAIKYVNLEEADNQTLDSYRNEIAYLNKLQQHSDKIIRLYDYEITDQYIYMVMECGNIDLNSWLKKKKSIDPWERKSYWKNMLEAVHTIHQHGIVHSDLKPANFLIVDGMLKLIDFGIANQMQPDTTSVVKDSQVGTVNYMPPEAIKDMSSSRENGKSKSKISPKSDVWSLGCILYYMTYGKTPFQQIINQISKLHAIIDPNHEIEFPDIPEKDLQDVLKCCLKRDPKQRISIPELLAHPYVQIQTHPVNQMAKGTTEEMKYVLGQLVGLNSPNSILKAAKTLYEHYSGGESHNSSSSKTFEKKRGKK
The following applies: read-out: Tm shift TTK. The method, boiled down: as §1

The target in the next experiment is smMLCK (Homo sapiens, UniProt Q15746). The following applies: read-out: Tm shift smMLCK. The method, boiled down: as §1
Chain of smMLCK (Q15746 whole entry): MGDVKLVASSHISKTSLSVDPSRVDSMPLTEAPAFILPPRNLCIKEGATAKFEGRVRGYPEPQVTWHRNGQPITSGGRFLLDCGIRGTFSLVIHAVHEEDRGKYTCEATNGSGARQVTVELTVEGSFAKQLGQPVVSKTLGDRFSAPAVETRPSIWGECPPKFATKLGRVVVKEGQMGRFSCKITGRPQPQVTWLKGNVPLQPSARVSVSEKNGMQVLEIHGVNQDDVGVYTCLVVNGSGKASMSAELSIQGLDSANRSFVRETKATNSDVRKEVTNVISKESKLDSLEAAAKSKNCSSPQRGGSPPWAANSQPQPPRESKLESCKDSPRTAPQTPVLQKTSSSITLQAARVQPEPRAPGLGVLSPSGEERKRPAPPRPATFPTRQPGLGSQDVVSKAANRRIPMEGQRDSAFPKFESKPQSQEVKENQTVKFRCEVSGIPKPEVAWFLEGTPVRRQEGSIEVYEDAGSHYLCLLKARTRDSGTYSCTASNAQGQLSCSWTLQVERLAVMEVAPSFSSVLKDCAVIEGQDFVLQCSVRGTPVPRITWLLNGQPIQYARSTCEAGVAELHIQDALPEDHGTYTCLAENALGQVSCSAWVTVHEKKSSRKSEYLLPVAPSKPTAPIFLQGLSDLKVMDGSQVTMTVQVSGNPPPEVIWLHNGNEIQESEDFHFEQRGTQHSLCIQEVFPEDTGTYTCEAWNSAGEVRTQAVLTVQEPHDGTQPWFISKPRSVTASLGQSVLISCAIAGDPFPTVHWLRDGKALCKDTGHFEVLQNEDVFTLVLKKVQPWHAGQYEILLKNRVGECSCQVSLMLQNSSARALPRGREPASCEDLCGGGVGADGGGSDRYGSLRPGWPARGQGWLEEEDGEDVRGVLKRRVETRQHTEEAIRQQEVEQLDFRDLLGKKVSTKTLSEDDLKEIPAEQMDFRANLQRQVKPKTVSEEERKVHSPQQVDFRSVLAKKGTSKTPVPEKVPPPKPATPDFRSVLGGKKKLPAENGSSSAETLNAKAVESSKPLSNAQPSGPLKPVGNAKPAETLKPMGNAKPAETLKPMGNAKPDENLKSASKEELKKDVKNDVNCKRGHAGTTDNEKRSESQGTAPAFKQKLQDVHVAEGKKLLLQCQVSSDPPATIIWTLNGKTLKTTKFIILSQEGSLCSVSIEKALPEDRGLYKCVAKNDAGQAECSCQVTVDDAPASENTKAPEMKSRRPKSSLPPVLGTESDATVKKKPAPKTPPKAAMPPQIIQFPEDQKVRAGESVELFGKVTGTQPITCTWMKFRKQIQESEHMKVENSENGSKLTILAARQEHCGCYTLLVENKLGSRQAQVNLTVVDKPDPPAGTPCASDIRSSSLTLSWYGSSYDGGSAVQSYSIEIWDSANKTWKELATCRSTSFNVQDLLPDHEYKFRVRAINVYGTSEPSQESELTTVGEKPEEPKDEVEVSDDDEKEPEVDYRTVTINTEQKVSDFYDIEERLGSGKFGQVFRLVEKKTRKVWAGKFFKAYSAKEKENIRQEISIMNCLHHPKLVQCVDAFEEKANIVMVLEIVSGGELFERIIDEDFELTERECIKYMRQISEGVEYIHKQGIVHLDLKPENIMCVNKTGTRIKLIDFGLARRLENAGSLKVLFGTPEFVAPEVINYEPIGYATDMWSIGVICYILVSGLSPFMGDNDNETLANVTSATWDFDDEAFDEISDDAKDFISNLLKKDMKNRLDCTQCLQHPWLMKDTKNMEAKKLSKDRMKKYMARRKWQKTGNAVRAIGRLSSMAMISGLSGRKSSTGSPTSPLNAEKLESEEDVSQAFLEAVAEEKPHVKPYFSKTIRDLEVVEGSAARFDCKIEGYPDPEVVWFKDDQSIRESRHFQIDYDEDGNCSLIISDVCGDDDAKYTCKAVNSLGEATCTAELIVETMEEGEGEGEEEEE

Read-outs that look alike come from different tables or passages of the source.

Chain of CaMK1d (Q8IU85 whole entry): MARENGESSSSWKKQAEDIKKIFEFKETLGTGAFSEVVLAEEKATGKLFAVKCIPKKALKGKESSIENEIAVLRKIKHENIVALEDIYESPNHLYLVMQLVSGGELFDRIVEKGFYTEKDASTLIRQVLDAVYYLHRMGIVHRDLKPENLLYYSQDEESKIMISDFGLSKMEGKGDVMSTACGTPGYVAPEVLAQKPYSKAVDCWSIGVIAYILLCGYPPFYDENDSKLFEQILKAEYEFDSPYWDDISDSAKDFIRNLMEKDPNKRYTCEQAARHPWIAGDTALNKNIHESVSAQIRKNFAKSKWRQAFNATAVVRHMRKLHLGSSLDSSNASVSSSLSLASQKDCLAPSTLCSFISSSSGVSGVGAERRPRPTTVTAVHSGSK
T1 sequence (Q8TDX7 whole entry): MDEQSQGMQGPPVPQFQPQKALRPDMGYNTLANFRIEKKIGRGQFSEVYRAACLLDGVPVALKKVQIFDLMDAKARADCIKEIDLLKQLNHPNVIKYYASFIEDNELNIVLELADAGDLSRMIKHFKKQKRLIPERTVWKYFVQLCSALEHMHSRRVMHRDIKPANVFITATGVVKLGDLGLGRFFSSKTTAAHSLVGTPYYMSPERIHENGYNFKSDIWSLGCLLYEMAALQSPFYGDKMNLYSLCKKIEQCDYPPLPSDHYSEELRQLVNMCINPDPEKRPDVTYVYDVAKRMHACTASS
T2 sequence (Q9P289 whole entry): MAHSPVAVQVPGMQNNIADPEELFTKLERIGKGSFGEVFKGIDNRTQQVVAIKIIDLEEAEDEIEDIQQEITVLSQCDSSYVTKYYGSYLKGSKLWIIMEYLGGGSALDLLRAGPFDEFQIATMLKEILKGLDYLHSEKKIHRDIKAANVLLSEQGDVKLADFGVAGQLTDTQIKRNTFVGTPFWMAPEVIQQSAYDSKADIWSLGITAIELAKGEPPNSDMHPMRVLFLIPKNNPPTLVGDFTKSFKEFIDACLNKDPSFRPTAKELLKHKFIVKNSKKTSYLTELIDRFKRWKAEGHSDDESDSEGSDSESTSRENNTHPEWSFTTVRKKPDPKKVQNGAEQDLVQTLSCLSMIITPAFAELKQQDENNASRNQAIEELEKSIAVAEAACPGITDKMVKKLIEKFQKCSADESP
T4 sequence (Q9Y2H1 whole entry): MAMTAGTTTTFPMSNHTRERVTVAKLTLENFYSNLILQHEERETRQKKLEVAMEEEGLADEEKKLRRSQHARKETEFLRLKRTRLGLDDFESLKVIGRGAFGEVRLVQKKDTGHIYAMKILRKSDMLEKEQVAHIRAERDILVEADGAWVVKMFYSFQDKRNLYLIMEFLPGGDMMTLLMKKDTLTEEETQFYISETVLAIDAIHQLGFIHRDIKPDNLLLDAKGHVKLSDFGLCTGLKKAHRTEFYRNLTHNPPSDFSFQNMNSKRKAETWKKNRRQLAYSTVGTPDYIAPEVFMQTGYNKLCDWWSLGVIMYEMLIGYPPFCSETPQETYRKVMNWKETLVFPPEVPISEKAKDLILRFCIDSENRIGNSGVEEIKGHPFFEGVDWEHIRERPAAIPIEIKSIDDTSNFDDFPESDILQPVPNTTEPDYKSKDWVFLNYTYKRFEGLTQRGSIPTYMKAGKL

Regarding `CCOC(=O)c1c(/C(C#N)=C\N)c2ccc(Cl)c(Cl)c2n1C` [KH-CB19, (E)-Ethyl 3-(2-Amino-1-Cyanovinyl)-6,7-Dichloro-1-Methyl-1H-Indole-2-Carboxylate], the ΔTm at 10 µM at NEK7 was 0 °C; on MST4 it was 2.4 °C; at CaMK4 it was 0.8 °C; on NDR2 it was -0.2 °C; on CaMK1d it was 0.1 °C; on SgK085 it was 4.1 °C. The ΔTm at 10 µM at TTK and on smMLCK was 0.5 °C each time.

For the compound `NC1=NC(=O)/C(=C2\CCNC(=O)c3[nH]c(Br)cc32)N1` [Hymenialdisine, hymenialdisine, reference compound], the ΔTm at 10 µM came to 0.6 °C on NEK7 (inhibitor 10 μM); 4.6 °C at MST4 (inhibitor 10 μM); 0.4 °C at CaMK4 (inhibitor 10 μM); 0.9 °C on NDR2 (inhibitor 10 μM); 0 °C on CaMK1d (inhibitor 10 μM); 2.7 °C at SgK085 (inhibitor 10 μM). In addition, the ΔTm at 10 µM was 0.7 °C at TTK (inhibitor 10 μM) and 1.9 °C on smMLCK (inhibitor 10 μM).

Take `CCOC(=O)c1c(C(C#N)=CN)c2ccc(Cl)c(Cl)c2n1C` (mixture of isomers) [KH-CB20, (E/Z)-Ethyl 3-(2-Amino-1-Cyanovinyl)-6,7-Dichloro-1-Methyl-1H-Indole-2-Carboxylate]: the ΔTm at 10 µM at NEK7 was 0.1 °C; on MST4 it was 0.1 °C; on CaMK4, -0.1 °C; on NDR2 it was -0.3 °C; at CaMK1d, -0.6 °C; at SgK085, 4.5 °C. Also, the ΔTm at 10 µM at TTK is 0.3 °C; at smMLCK, 0.6 °C.

Turning to `Cn1c2c(Cl)c(Cl)ccc2c2c(C#N)c[nH]c(=O)c21` [compound 3, 7,8-Dichloro-9-Methyl-1-Oxo-2,9-Dihydro-1H-Pyrido[3,4-b]Indole-4-Carbonitrile], the ΔTm at 10 µM is 0.6 °C on NEK7 (inhibitor 10 μM); 0.4 °C at MST4 (inhibitor 10 μM); 0.4 °C at CaMK4 (inhibitor 10 μM); 0 °C on NDR2 (inhibitor 10 μM); -0.3 °C at CaMK1d (inhibitor 10 μM); 2.9 °C on SgK085 (inhibitor 10 μM). The figures for the ΔTm at 10 µM at TTK (inhibitor 10 μM) and on smMLCK (inhibitor 10 μM) were 1.8 °C and 0.5 °C, respectively.

Consider `CCOC(=O)c1c(C(C#N)=CN(C)C)c2ccc(Cl)c(Cl)c2n1C` (mixture of isomers) [compound 2, (E/Z)-Ethyl 6,7-Dichloro-3-[1-Cyano-2-(Dimethylamino)Vinyl]-1-Methyl-1H-Indole-2-Carboxylate], for which the ΔTm at 10 µM is -0.7 °C on NEK7 (inhibitor 10 μM); -0.6 °C on MST4 (inhibitor 10 μM); 0.2 °C at CaMK4 (inhibitor 10 μM); -0.1 °C at NDR2 (inhibitor 10 μM); -0.4 °C at CaMK1d (inhibitor 10 μM); 0.4 °C on SgK085 (inhibitor 10 μM). In addition, the ΔTm at 10 µM at TTK (inhibitor 10 μM) is -0.1 °C; at smMLCK (inhibitor 10 μM), 1.1 °C.

These data come from paper PMC3145970, “Specific CLK Inhibitors from a Novel Chemotype for Regulation of Alternative Splicing” (Chemistry & Biology, 2011).
